Results reported in patent US5254572A, “Method and composition for supplementing vitamin B6 where the PN-PLP pathway is disturbed” (priority 1989, dated 1993).
Values joined by “and” are separate entries in the source; they are usually repeats but may differ in a detail not shown here. Equal values may be shown once. “Also recorded” adds a separate entry of the source.

Experiments:
fibroblast cell cultures = test: Example 27: cellular uptake in fibroblast cell cultures, intracellular PLP content; format: cell-based
Description: Fibroblast cell cultures were cultivated in the usual manner in a medium containing different concentrations of various B6 vitamers, and the intracellular […] content was determined.
When the extracellular PL concentration was 60 nM, intracellular PLP levels reached a concentration of 12 nmol/g cell protein. […] Moreover, when both PN and PL were included in the medium, intracellular PLP accumulation was decreased in comparison with PLP accumulation seen when PL alone (in equimolecular concentrations)was included in the medium.

albumin = conditions: plasma; cited from earlier work
[1] = Plasma PLP increment in critically ill patients on hyperalimentation and additional PN / alleviation of B6 depletion; format: in vivo
Text: A direct inverse correlation exists between the degree of B6 depletion of critically ill patients and their chances of survival. Medical and surgical complication such as shock, hepatic failure, infection and sepsis, wound dehiscence, incisional hernia, aminoglycoside induced renal failure and impaired skin and mucosal regeneration, hematopoiesis, hormone production and wound repair; multi-organ dysfunction, respiratory distress and also severe depression are substantially more frequent in B6 deficient patients. These conditions are, inter alia, causally related to impairment of immune function, collagen and elastin cross-linking and polyamine synthesis and accumulation. […] However, the correctness or otherwise of any explanations given or mechanisms postulated is not to limit the scope of the invention or to be relevant to the inventive merits of the invention as claimed.

[2] = test system: estrogen side effects (tryptophane metabolism); test: Counteracting side effects of elevated estrogen (PMS, OC users); format: in vivo, patients
PN-oxidase deficiency = test: Response of patients with reduced PN-oxidase activity; format: in vivo
[3] = test system: anemia / haemoglobin formation; test: Treatment of anemias; format: in vivo, patients; conditions: cases where conventional therapy is ineffective, pyridoxine refractory anaemias
Babesia canis [4] = test: Example 4: clinical trials on dogs with B. canis infection; format: in vivo
Description: Babesia canis infection, better known as "biliary fever", is a severe and frequently fatal disease in dogs. It is a protozoal disease involving large-scale destruction of erythrocytes (red blood cells) and loss of haemoglobin. Double blind trials were carried out on two groups of dogs presented to the clinic for treatment of severe B. canis infections. Upon admission, all animals were recumbent with fever, jaundice, and accelerated heart and respiratory rate. All animals were given standard treatment, which consisted of post surgical drip, doxycycline, trypan blue, hepavet, electrolytes and glucose. In the experimental group, a solution of PL was added to the drip (electrolytes, glucose) given to the animals. In the control group, saline was given to replace the PL solution.
The PL solution according to the invention was made up as follows (per vial):
Experimental animals: PL solution according to the invention was given with the drip in such a manner that each patient received 50mg of pyridoxal over a 12 h period. Each animal received only one such course of treatment.
These received saline instead of PL solution under similar conditions. Control animals were selected to resemble experimental animals as closely as possible in respect of race and initial haemoglobin concentration.
**E: denotes experimental animals C: denotes controls, E: denotes changes
per day during the period between the first two series of measurements of
the parameters listed. Normally these represent measurements obtained
immediately after admission (or 1 day later) and again 2 to 4 days later
after treatment has been started.
***Average changes for six animals in each group over the two periods of […]

Babesia canis [5] = test: Example 4: further clinical trials on dogs with B-canis infection; format: in vivo
Text: The experiment was repeated with 13 dogs (10 inbred beagles and 3 other mongrels) randomly divided into an experimental and a control group. All animals were infected with Babesia canis by injection of blood from a splenectomised donor dog which led to the development of acute Babesiosis in approximately 3-5 days. All dogs were monitored twice daily until the haematocrit values fell to 0.15 l/l when treatment was started which in the case of all animals consisted of the following:
Electrolytes solution (number 2) for the first […], thereafter Post-Surgisol. Both fluids were administered by means of an intravenous jugular catheter at a rate of 80 ml/kg/24h.
Trypan blue (1%) 1 ml/kg intravenous once only. Berenil 3.5 mg/kg intramuscularly 7 days after the Trypan blue. Heparin, 25 IU/kg subcutaneously three times per day for the first 2 days.
Experimental animals, in addition, received pyridoxal in their infusions at a concentration of 50 mg/l for the entire duration of fluid therapy.
Before the start of treatment, a urine dipstick and sediment examination were performed as well as a complete clinical evaluation and faecal flotation to determine the presence of helminth ova.
Assessment: Temperature pulse and respiration were measured every 6 hours during the first 3 days and a subjective assessment of habitus (grade 1-4) and appetite (1-4) was also made at the same time.
Full haematological and biochemical assessment was performed daily.
Serum alkaline phosphatase determinations were made on days 1 and 3.
Additional trial parameters and measurements consisted of Astrup determinations (before treatment and again 24 hours later) and a ten day survival rate.
Samples for haematology were drawn in evacuated EDTA tubes and for serum chemistries into plain evacuated tubes (cephalic vein).
Plasma PLP and PL as well as RBC-PLP and PL values were determined by means of a HPLC procedure routinely used for human studies.

[6] = test system: E. Coli induced septic shock; test: Protective effect in experimentally induced septic shock; format: in vivo, rats
Description: An E. Coli suspension was prepared and serially diluted to the point where an injection of 0.3 ml caused approximately 80% mortality in rats after 12 h. This solution was used as the challenging solution in the following experiment:
Two groups of 6 male rats each were used. The animals were carefully selected so that the average mass in both groups was 210 g (191-219 g in the control group; 194-224 g in the experimental group). A solution containing 43.8 mg/ml of pyridoxal was prepared for i/v and i/p injection. 0.8 ml of this solution afforded 1.0 m mol/kg of PL when injected into a 210 g rat.
At time 0 h, the control group received 0.3 ml saline and the experimental group 0.3 ml of the PL solution. After 1 h all animals in both groups were challenged with 0.3 ml i/v of the E. Coli suspension. Immediately thereafter, the control group received 0.5 ml saline and the experimental group 0.5 ml of the PL solution i/p.
Each entry represents 1 animal, 12 h denoting that the particular animal survived for the full observation period of 12 h. Other entries denote mortalities at the times indicated, e.g. 2 h inspection (all animals were inspected at 1 h intervals and mortalities counted).

[7] = experimental animals or humans; cited from earlier work
lipid metabolism = conditions: experimental animals; German patent application P37 05 549.6; cited from earlier work
[8] = compared with PN; cited from earlier work
[9] = test system: PNP-oxidase in bone marrow aspirate; test: Conversion of pyridoxine by bone marrow aspirate (PNP-oxidase activity); format: cell-based; conditions: immature cells
Description: To confirm the inability of immature cells to convert pyridoxine into pyridoxal and its phosphate, an aspirate of bone marrow was tested.

[10] = test system: glutamate-pyruvate-transaminase (GPT); test: RBC GPT-activity before and after daily oral PN supplementation; format: in vivo, human; conditions: RBC GPT-activity at day 0 and day 28, daily oral PN (10 mg)
Text: The enzyme glutamate-pyruvate-transaminase (GPT) is a PLP dependent enzyme present in RBC which can be used to assess the utilisation of PN by RBC. In the population, individuals may be divided into 3 different groups corresponding to 3 polymorphic forms of the enzyme (1-1, 25%; 1-2, 50%; 2-2, 25%.

[11] = man; cited from earlier work
[12] = test system: estrogen side effects (tryptophane metabolism); conditions: cited from earlier work
[13] = test system: anemia / haemoglobin formation; conditions: 50-200 mg PN/day, one case 600 mg/day; Merrill and Henderson; cited from earlier work
[14] = test system: PLP-phosphatases in red blood cells; test: Inhibition of PLP-specific phosphatases of red blood cells; format: biochemical
[15] = average change for six experimental animals
[16] = change per day, individual animal, 50 mg pyridoxal over 12 h with drip
[17] = change per day, total of experimental group
[18] = patients destined to die, hyperalimentation and additional PN, even with 200mg/day

Cc1ncc(COP(=O)(O)O)c(C=O)c1O [PLP, pyridoxal phosphate]
accumulation of extracellular PLP by the cells (fibroblast cell cultures): not accumulated by the cells
radioactivity in the intracellular fraction (fibroblast cell cultures; incubation with radioactive PLP): very little radioactivity
protein (albumin) binding compared with PL (albumin): substantially more prone to becoming protein (albumin) bound than PL

Cc1ncc(CO)c(C=O)c1O [PL, pyridoxal]
effectiveness to counteract B6 depletion ([1]; compared with PN, also patients who do not respond to PN): substantially more effective than PN
effectiveness / effective dosage rate against side effects of estrogen ([2]; supplementation, particularly over prolonged periods, compared with pyridoxine): effective at dosage rates as low as a few mg/day; also recorded: far more effective
response compared with PN (PN-oxidase deficiency): respond much more satisfactorily
stimulation of haemoglobin formation [3]: capable of stimulating the formation of haemoglobulin
Hb change, average (Babesia canis [4]; [15]): 11.7 g/L
MCHC change, average (Babesia canis [4]; [15]): -0.03 g/dlRC
MCV change, average (Babesia canis [4]; [15]): 0.17 fL
RCC change, average (Babesia canis [4]; [15]): 4.4e+11 L⁻¹
WCC change, average (Babesia canis [4]; [15]): 4.52e+09 L⁻¹
Hb (haemoglobin) change (Babesia canis [4]; [16]): 11.0 g/L and 12.8 g/L and 6.5 g/L and 9.5 g/L and 7.8 g/L and 24.8 g/L
MCHC (mean corpuscular haemoglobin content) change (Babesia canis [4]; [16]): 3.8 g/dlRC and -1 g/dlRC and -2.5 g/dlRC and -1.7 g/dlRC and -0.5 g/dlRC and 2.5 g/dlRC
MCV (mean corpuscular volume) change (Babesia canis [4]; [16]): -6 fL and 2 fL and 0 fL and 3 fL and 1 fL
RCC (red cell count) change (Babesia canis [4]; [16]): 4.1e+11 L⁻¹ and 4.9e+11 L⁻¹ and 4.7e+11 L⁻¹ and 2.3e+11 L⁻¹ and 6.4e+11 L⁻¹
WCC (white cell count) change (Babesia canis [4]; [16]): 3e+09 L⁻¹ and -8.4e+09 L⁻¹ and 2.5e+09 L⁻¹ and 3.1e+09 L⁻¹ and 1.05e+09 L⁻¹ and 1.79e+10 L⁻¹
Hb change, total (Babesia canis [4]; [17]): 70 g/L
MCHC change, total (Babesia canis [4]; [17]): -8.2 g/dlRC
MCV change, total (Babesia canis [4]; [17]): 1 fL
RCC change, total (Babesia canis [4]; [17]): 2.65e+12 L⁻¹
WCC change, total (Babesia canis [4]; [17]): 2.715e+10 L⁻¹
recovery of haemoglobin levels (Babesia canis [4]; experimental animals): amazing recovery of haemoglobin levels
haematological differences to control group (haemoglobin, RCC, WCC) (Babesia canis [4]; experimental vs control): Large, significant differences
mean corpuscular hemoglobin (Babesia canis [5]; day 5, experimental animals): statistically significantly increased
mean corpuscular volume (Babesia canis [5]; day 5, experimental animals): statistically significantly increased
clinical improvement (Babesia canis [5]; experimental group): definite clinical improvement
deaths (Babesia canis [5]; experimental group, 50 mg/l in infusions, two died in control group): none
reticulocyte count response (Babesia canis [5]; experimental vs control): responded quicker
normablast count profile (Babesia canis [5]; first 3 days, continuous downward trend in controls): inverse trend
alkaline phosphatase values (Babesia canis [5]; serum, day 1 to day 3, decreased in controls): large increase
difference in survival rate ([6]; PL-supplemented vs control, 12 h): statistically significant difference in survival rate
survival time ([6]; individual rat, 0.3 ml i/v 1 h before and 0.5 ml i/p after challenge, 12h = survived full period): 1 h and 3 h (3×) and 12 h (2×)
intracellular PLP level (fibroblast cell cultures; extracellular PL concentration 60 nM): 12 nmol/g cell protein
intracellular PLP level, maximum value (fibroblast cell cultures; extracellular PL concentration 600 nM): 120 nmol/g cell protein
cellular uptake (fibroblast cell cultures; further increase of extracellular concentration): saturable process
effect of extracellular vitamer on intracellular PLP level (fibroblast cell cultures; relative effectiveness of PL and PN): more effective than PN
adverse effects [7]: No adverse effects
lipid lowering effect (lipid metabolism): unexpectedly strong lipid lowering effects
in vitro stability [8]: far less stable

Cc1ncc(CO)c(CO)c1O [PN, pyridoxine]
increment in plasma PLP, generally [1, 18]: less than 10 nM
increment in plasma PLP, occasionally [1, 18]: less than 1 nM
side effects at high bolus dosage ([2]; high dosage levels (e.g. 200-400 mg daily)): produces side effects
conversion of pyridoxine into pyridoxal and its phosphate [9]: incapable of converting PN into PLP or PL
conversion of pyridoxine into pyridoxal and its phosphate ([9]; listed as pyridoxine): incapable of converting pyridoxine into pyridoxal
slow responders among persons studied [10]: Approximately 20%
rate of increase of intracellular PLP level (fibroblast cell cultures; PN vs PL as extracellular source): increased much more slowly (and in a time dependent manner)
effect of high concentrations on intracellular PLP accumulation (fibroblast cell cultures; high concentrations of PN with PL): suppress intracellular PLP accumulation
plasma half-life [11]: about 12 minutes
dosage necessary for effect in PMS / estrogen side effects ([12]; bolus doses, daily): 200 to 400 mg/day
effect on Tryp. metabolism and associated clinical symptoms ([12]; oral, OC users): repeatedly shown to normalise Tryp. metabolism
lipid lowering effect (lipid metabolism): only a weak lipid-lowering and regulating agent
response rate in pyridoxine-responsive anemias [13]: fewer than half of the cases

Cc1ncc(CO)c(CN)c1O [PM, pyridoxamine]
response compared with PN (PN-oxidase deficiency): respond much more satisfactorily

NCCCNCCCCNCCCN [spermine]
inhibition of PLP-specific phosphatases [14]: inhibited

NCCCCNCCCN [spermidine]
inhibition of PLP-specific phosphatases [14]: inhibited
